Publication PMC4655192 (Neuropharmacology, 2015)

Assays:
MOR = conditions: brain homogenates, inverse agonists; ref Wang et al., 2004; cited from earlier work
KOR = KOR (Mus musculus, UniProt P33534); assay: Antagonism of U69,593-stimulated [35S]GTPγS binding in WT striatum; format: biochemical

For `O=C1/C(=C/c2ccccc2)C[C@@]2(O)[C@H]3Cc4ccc(O)c5c4[C@@]2(CCN3CC2CC2)[C@H]1O5` [BNTX], the “suppression of MOR basal signaling activity” value (MOR) is listed as “less than 10%”.

With `Oc1ccc2c3c1O[C@H]1c4[nH]c5c(c4C[C@@]4(O)[C@@H](C2)N(CC2CC2)CC[C@]314)C[C@@]1(O)[C@H]2Cc3ccc(O)c4c3[C@@]1(CCN2CC1CC1)[C@H]5O4` [NorBNI, Norbinaltorphimine] the IC50 (KOR) was 6 ± 1.6 nM, the “blockade of U69,593 stimulated G protein activation” value (KOR; antagonist 10 μM, increasing concentrations of U69,593, WT) was “fully blocks” and the “% competition” value (KOR; vs 10 μM U69,593, WT striatum, n=3) was 99 ± 7%.
